Experimental data: US12503444B2, “Compound containing benzene ring and application thereof” (WUHAN LL SCIENCE AND TECHNOLOGY DEVELOPMENT CO., LTD., priority 2019, dated 2025)
pIC50: −log10 of the molar value. Read-outs that look alike come from different tables or passages of the source.

Key:
[1] = biological target: T1, hP2X4 (human purinergic P2X receptor subtype 4) (Homo sapiens, UniProt Q99571); assay: FLIPR assay of intracellular calcium increase induced by activation of hP2X4 expressed in HEK293 cells (agonist BZ-ATP 2.5 μM); type: cell-based; conditions: HEK293 cells stably expressing hP2X4, FLIPR, read-out: P2X4 IC50
T1 sequence (Q99571 1-404 isoform Q99571-2): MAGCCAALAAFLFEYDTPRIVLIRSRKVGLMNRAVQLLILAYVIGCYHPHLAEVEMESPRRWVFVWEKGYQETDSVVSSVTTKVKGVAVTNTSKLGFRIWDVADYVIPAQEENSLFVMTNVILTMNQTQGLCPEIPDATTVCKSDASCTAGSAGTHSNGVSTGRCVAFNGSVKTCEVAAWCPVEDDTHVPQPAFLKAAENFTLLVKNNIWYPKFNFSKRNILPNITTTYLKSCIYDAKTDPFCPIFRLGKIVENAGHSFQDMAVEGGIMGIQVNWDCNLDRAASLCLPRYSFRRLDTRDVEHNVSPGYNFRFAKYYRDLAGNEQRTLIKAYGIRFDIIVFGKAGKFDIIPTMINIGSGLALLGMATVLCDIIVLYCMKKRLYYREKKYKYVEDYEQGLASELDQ
Method in brief: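 HEK293 cells stably expressing hP2X4, loaded with Calcium 6 dye for 1.5 h at 37° C, then preincubated with compound 30 min at room temperature.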

[2] = tested on: Male Dunkin Hartley guinea pigs; assay: Citric acid only cough model in guinea pigs; type: in vivo; conditions: guinea pig; for Cough inhibition rate Vs vehicle (%) / Cough latency / Mean number of coughs / Cough inhibition rate Vs baseline (%): 17.5% citric acid; for Cough inhibition rate Vs baseline (%): before vs after administration
Procedure: Male Dunkin Hartley guinea pigs (300-350 g) were placed in an animal atomization box, and then the door of the atomization box was closed while the ultrasonic atomizer (Guangdong Yuehua) was turned on. 17.5% citric acid gas was introduced into the atomization box at a maximum atomization rate (about 2 mL/min) for 20 s, and coughs of the animals within 10 min were continuously observed from the time of the start of atomization. During the 10-min observation, coughs of the animals needed to be counted manually, and the number of coughs were judged according to cough postures of the guinea pigs, such as abdominal twitching, mouth opening, and head inclining downward abruptly. The number of coughs during the first 5 min and that during 10 min were recorded, and the cough latency of the guinea pigs, namely the time from the initiation of citric acid induction to the appearance of the 1st cough, was also recorded.
Cough inhibition rate Vs vehicle represents the percentage of reduction
[formula] in the number of coughs in the administration group compared to the vehicle group upon citric acid challenge; Cough inhibition rate Vs baseline represents the percentage of reduction
[formula] in the number of coughs in the administration group before and after administration.

[3] = In vitro metabolic stability, liver microsome incubation (human); type: in vitro ADME; conditions: 1 mg/mL liver microsome protein, 37° C.; for half-life: human, liver microsomes, read-out: T1/2 in human liver microsome min
Procedure: (§1) The in vitro metabolic stability of the compounds disclosed herein was determined through incubation of liver microsomes of various species. A proper amount of test compound was added into a liver microsome reaction system (1 mg/mL liver microsome protein, 25 U/mL glucose-6 phosphate dehydrogenase, 1 mM NADP, 6 mM D-glucose 6-phosphate and 5 mM MgCl2), and then the mixture was incubated in a water bath kettle at 37° C. to start the reaction. At each time point, 100 μL of the reaction system was added into a centrifuge tube containing 400 μL of internal standard working solution (containing a 200 ng/mL solution of dexamethasone, diclofenac, tolbutamide and labetalol in acetonitrile) precooled at 0° C. so as to stop the reaction, and the mixture was then centrifuged at 10,000 g for 10 min at 4° C. The supernatant was collected for LC-MS assay so as to obtain the values of in vitro metabolic half-life of the test compounds in liver microsomes of various species.

[4] = In vitro metabolic stability, liver microsome incubation (rat); type: in vitro ADME; conditions: 1 mg/mL liver microsome protein, 37° C.; for half-life: rat, liver microsomes, read-out: T1/2 in rat liver microsome min
Procedure: as §1

[5] = In vitro metabolic stability, liver microsome incubation (guinea pig); type: in vitro ADME; conditions: 1 mg/mL liver microsome protein, 37° C.; for half-life: guinea pig, liver microsomes, read-out: T1/2 in guinea pig liver microsome min
Procedure: as §1

[6] = In vitro cytotoxicity assay in HepG2 cells, CCK-8 method; conditions: human
Procedure: (§2) In vitro cytotoxicity assay for the compounds disclosed herein was performed in HepG2 cells using the CCK-8 method. HepG2 cells (Beina Bio) in the logarithmic growth phase were collected, the concentration of cell suspension was adjusted, and then the cells were plated on a 96-well cell culture plate at 50,000 cells/well. The cells were then incubated overnight in a cell incubator (5%/humidity, 37° C.), and after 80-90% cell confluence was achieved, test compounds or vehicle (DMSO) at various concentration gradients were added after medium change. The resulting mixture was incubated in the cell incubator (5% humidity, 37° C.) for 48 h. After the treatment, the medium in the plate was discarded. The plate was washed twice with PBS, added with CCK-8 working solution (Beyotime) at 100 μL per well, and then incubated at 37° C. for 1.5 h away from the light. Absorbance at OD450 nm was measured for each well on a microplate reader, and CC50 value of each compound was analyzed and calculated.

HepG2 cells [7] = tested on: HepG2 cells
Procedure: as §2

HepG2 cells [8] = assay: In vitro cytotoxicity assay in HepG2 cells, CCK-8 method; conditions: read-out: HepG2 CC50, 48 h, CCK-8
Procedure: as §2

[9] = 20 mg/kg group, before administration (baseline)
[10] = 60 mg/kg group, before administration (baseline)

Compound	pIC50 ([1]; numeric values)	half-life [3] [h]	half-life [4] [h]	half-life [5] [h]	CC50 at 48 h [6] [nM]	T1/2 in human liver microsome min [3] [h]	CC50 (HepG2 cells [7]) [nM]	pIC50 ([1]; class symbols)	other results
NS(=O)(=O)c1cc(NC(=O)Cc2ccccc2Cl)cc2nn(C(F)F)cc12 [Compound 1, 2-(2-chlorophenyl)-N-(2-(difluoromethyl)-4-sulfamoyl-2H-indazol-6-yl)acetamide]	7.54	11.5	6.03	2.58	> 200000				Effect on number of coughs and cough latency (in words) ([2]; 20 mg/kg and 60 mg/kg, compared with vehicle group or before administration): reduce the number of coughs and prolong the cough latency in a dose-dependent manner; Effect on number of coughs and cough latency (in words) ([2]; 60 mg/kg, no significant difference from dextromethorphan at the same dosage): significant improvement effect; Cough inhibition rate Vs vehicle (%) ([2]; 20 mg/kg): 20.59%; Cough latency [2, 9]: 94.29 s; Mean number of coughs [2, 9]: 18.57; Cough latency ([2]; 20 mg/kg, after administration): 214.29 s; Mean number of coughs ([2]; 20 mg/kg, after administration): 15.29; Cough inhibition rate Vs baseline (%) ([2]; 20 mg/kg): 17.69%; Cough inhibition rate Vs vehicle (%) ([2]; 60 mg/kg): 46.75%; Cough latency [2, 10]: 84.88 s; Mean number of coughs [2, 10]: 18.50; Cough latency ([2]; 60 mg/kg, after administration): 221.75 s; Mean number of coughs ([2]; 60 mg/kg, after administration): 10.25; Cough inhibition rate Vs baseline (%) ([2]; 60 mg/kg): 44.59%
CCCn1ncc2c(S(N)(=O)=O)cc(NC(=O)Cc3ccccc3Cl)cc21 [Compound 5-B, 2-(2-chlorophenyl)-N-(1-propyl-4-sulfonylamino-1H-indazol-6-yl)acetamide]	8.66					1.094	> 200000		
CC(C)Cn1ncc2c(S(N)(=O)=O)cc(NC(=O)Cc3ccccc3Cl)cc21 [Compound 7-B, 2-(2-chlorophenyl)-N-(1-isobutyl-4-sulfamoyl-2H-indazol-6-yl)acetamide]	8.63					0.5413	150000		
CC(C)CCn1ncc2c(S(N)(=O)=O)cc(NC(=O)Cc3ccccc3Cl)cc21 [Compound 8-B, 2-(2-chlorophenyl)-N-(1-isopentyl-4-sulfamoyl-2H-indazol-6-yl)acetamide]	9.42					0.4488	> 200000		
NS(=O)(=O)c1cc(NC(=O)Cc2ccccc2Cl)cc2c1cnn2CC1CCC1 [Compound 24-B, 2-(2-chlorophenyl)-N-(1-(cyclobutylmethyl)-4-sulfamoyl-1H-indazol-6-yl)acetamide]		1.84	0.768	2.41	> 200000			≥ 8.00	
NS(=O)(=O)c1cc(NC(=O)Cc2ccccc2Cl)cc2nn(Cc3ccc(F)cc3)cc12 [Compound 88, 2-(2-chlorophenyl)-N-(2-(4-fluorobenzyl)-4-sulfamoyl-2H-indazol-6-yl)acetamide]		8.54	2.07	2	> 200000			≥ 8.00	
N#Cc1ccc(Cn2cc3c(S(N)(=O)=O)cc(NC(=O)Cc4ccccc4Cl)cc3n2)cc1 [Compound 91, 2-(2-chlorophenyl)-N-(2-(4-cyanobenzyl)-4-sulfamoyl-2H-indazol-6-yl)acetamide]		3.23	1.84	0.809	> 200000			≥ 8.00	
COc1ccc(CN(Cc2ccc(OC)cc2)S(=O)(=O)c2cc(NC(=O)Cc3ccccc3Cl)cc3c2cnn3Cc2ccc(C#N)cc2)cc1 [Compound 91A, N-(4-(N,N-bis(4-methoxybenzyl)sulfamoyl)-1-(4-cyanobenzyl)-1H-indazol-6-yl)-2-(2-chlorophenyl)acetamide]						1.6827		≥ 8.00	T1/2 in rat liver microsome min [4]: 2.0857 h; T1/2 in guinea pig liver microsome min [5]: 1.424 h; CC50 (HepG2 cells [8]): > 200000 nM
